Experimental data reported in article PMC5454592, “Pharmacological and Toxicological Properties of the Potent Oral γ-Secretase Modulator BPN-15606” (The Journal of Pharmacology and Experimental Therapeutics, 2017).

Columns and labels:
[1] = parameters: method as in Soares et al., 2016; Toyn et al., 2016; settings: ref Soares et al., 2016, Toyn et al.; cited from earlier work
[2] = tested on: Notch proteolysis by γ-secretase; test: Notch assay (Myc-tagged Notch NΔE in H4-APP751 neuroglioma cells); format: cell-based; settings: H4-APP751 neuroglioma cells transfected with Myc-tagged Notch (NΔE) construct; Fig. 3
Protocol: Notch assays were carried out as described previously ([Wagner et al., 2014]).

## CNc1nc(Nc2ccc(-n3cnc(C)n3)c(OC)c2)nc2c1CC[C@H]2c1ccc(F)cc1 [BMS-932481]
[1]
  hepatic safety in repeated oral dosing studies in humans: transient elevations in plasma concentrations of enzymes associated with hepatic toxicity

## C[C@H](NC(=O)Cc1cc(F)cc(F)c1)C(=O)N[C@H](C(=O)OC(C)(C)C)c1ccccc1 [N-[N-(3,5-difluorophenacetyl)-L-alanyl]-S-phenylglycine t-butyl ester, reference compound]
[2]
  Notch proteolysis: potently inhibits Notch proteolysis
